Data taken from US20260256925A1, “INDAZOLE DERIVATIVES AS ESTROGEN RECEPTOR DEGRADERS” (REGENTS OF THE UNIVERSITY OF MICHIGAN, priority 2022, published 2026).

Legend:
ER [1] = target: T1, ER (Homo sapiens, UniProt P03372); assay: In-cell Western (ICW) ER degradation assay in T47D cells; assay type: cell-based; conditions: T47D cells, 16 hrs
T1 construct: endogenous in cells; probably T47D or MCF-7
T1 sequence (P03372 1-595): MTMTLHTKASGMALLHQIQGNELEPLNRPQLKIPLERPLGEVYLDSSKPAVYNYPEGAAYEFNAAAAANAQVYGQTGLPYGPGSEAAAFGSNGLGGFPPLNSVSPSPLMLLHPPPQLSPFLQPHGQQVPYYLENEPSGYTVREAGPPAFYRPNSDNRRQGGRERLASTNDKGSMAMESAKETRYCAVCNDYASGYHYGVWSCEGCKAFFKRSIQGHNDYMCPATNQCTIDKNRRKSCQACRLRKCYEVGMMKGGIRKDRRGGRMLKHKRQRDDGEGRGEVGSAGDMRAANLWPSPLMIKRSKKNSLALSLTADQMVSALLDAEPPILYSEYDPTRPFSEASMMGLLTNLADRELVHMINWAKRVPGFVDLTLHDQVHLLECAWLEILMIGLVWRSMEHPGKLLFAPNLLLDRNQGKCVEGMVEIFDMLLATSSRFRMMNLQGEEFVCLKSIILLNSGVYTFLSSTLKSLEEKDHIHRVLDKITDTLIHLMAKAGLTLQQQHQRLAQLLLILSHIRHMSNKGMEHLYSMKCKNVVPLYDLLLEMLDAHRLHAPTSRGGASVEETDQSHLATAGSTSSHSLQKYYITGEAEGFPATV
Experimental: (§1) ERa degradative activity of compounds can be assessed in MCF-7 and T47D Cells. MCF-7 and T47D cell are seeded and are subsequently treated with the compounds at certain concentrations (e.g., 0.02 to 300 nM). DMSO can be used as vehicle control. Cells are fixed and are blocked with Intercept (PBS) Blocking Buffer (e.g., Li—COR, Odyssey Blocking Buffer), and are stained with ER (e.g., 1:500, Cell signaling) primary antibody for overnight at cold room. Secondary Antibody (e.g., IRDye 800CW Goat anti-Rabbit IgG) and CellTag 700 Stain are added in Intercept (PBS) Blocking Buffer. Finally, cell plate is placed in incubator to dry. Image and signal are captured on Odyssey® DLx Imaging System.
(§2) In-cell Western (ICW) assays in MCF-7 and T47D cell lines.
(§3) Procedures for ICW assays
(§4) In vitro Assay: MCF-7 and T47D ICW assay
(§5) Day 3: After 16 hrs of compounds treatment, cells were fixed by 4% PFA and permeabilized with elution buffer (0.1% Triton X-100 in 1% PBS Solution). Subsequently, cells were blocked with Intercept (PBS) Blocking Buffer (Li—COR, Odyssey Blocking Buffer), and were stained with ER (1:500, Cell signaling) primary antibody for overnight at cold room.
(§6) Day 4: Remove the buffer, add IRDye 800CW Goat anti-Rabbit IgG Secondary Antibody (1:2000) and CellTag 700 Stain (1:500) in Intercept (PBS) Blocking Buffer. Finally, cell plate is placed in incubator to dry. Image and signal were captured on Odyssey® DLx Imaging System.

ER [2] = target: T1, ER; assay: In-cell Western (ICW) ER degradation assay in MCF-7 cells; assay type: cell-based; conditions: 16 hrs; for DC50: read-out: ER MCF7 ICW DC50
Experimental: as §1, §2, §3, §4, §5, §6

CRBN/DDB1 = target: T2, CRBN/DDB1 (Homo sapiens, UniProt Q96SW2); assay type: binding; conditions: HTRF, Cy5-labeled Thalidomide probe
T2 construct: purchased Wuxi RP210521GA
Experimental: The binding potency was determined using HTRF assay technology (Perkin Elmer). Compounds were serially diluted in DMSO and 0.2 μL volume was transferred to white 384-well plate.

[3] = Cell growth assay, WST-8 (compounds B1-B126); assay type: cell-based; conditions: 96 h; T47D cell line, WST-8, 4 days; read-out: Cell growth inhibition in T47D cell line IC50
Procedure, shortened: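 Read-out is WST-8 absorbance at 450 nm (2.5 h, 37° C) as a fraction of vehicle control, from three separate repeats. Compound exposure lasted 4 days, starting one day after plating 1500 cells/well.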

ER [4] = target: T1, ER; assay: Western blot analysis (compounds B1-B126); assay type: cell-based; conditions: ER degradation, read-out: Traditional Western Degradation potency (DC50)
Experimental: Western Blot Analysis. The cells that are treated with the compounds are lysed in Radioimmunoprecipitation Assay Protein Lysis and Extraction Buffer (e.g., 25 mmol/L Tris.HCl, pH 7.6, 150 mmol/L NaCl, 1% Nonidet P-40, 1% sodium deoxycholate, and 0.1% sodium dodecyl sulfate) containing proteinase inhibitor cocktail. Equal amounts of total protein are electrophoresed through 10% SDS-polyacrylamide gels after determination of protein concentration by BCA assay. The separated protein bands are transferred onto PVDF membranes and blotted against different antibodies. The blots are scanned, and the band intensities are quantified (e.g., by using GelQuant.NET software provided by biochemlabsolutions.com). The relative mean intensity of target proteins is expressed after normalization to the intensity of glyceraldehyde-3-phosphate dehydrogenase bands.
Western Blot Analysis. Western blot analysis was performed essentially as described previously. The cells treated with indicated compounds were lysed in Radioimmunoprecipitation Assay Protein Lysis and Extraction Buffer (25 mmol/L Tris.HCl, pH 7.6, 150 mmol/L NaCl, 1% Nonidet P-40, 1% sodium deoxycholate, and 0.1% sodium dodecyl sulfate) containing proteinase inhibitor cocktail (Roche Diagnostics, Mannheim, Germany). Equal amounts of total protein were electrophoresed through 10% SDS-polyacrylamide gels after determination of protein concentration by BCA assay (Fisher Scientific, Pittsburgh, PA). The separated protein bands were transferred onto PVDF membranes (GE Healthcare Life Sciences, Marlborough, MA) and blotted against different antibodies, as indicated. The blots were scanned, and the band intensities were quantified using GelQuant.NET software provided by biochemlabsolutions.com. The relative mean intensity of target proteins was expressed after normalization to the intensity of glyceraldehyde-3-phosphate dehydrogenase bands.

ER [5] = target: T1, ER; assay: In-cell western blot analysis, relative ER percentage (compounds B1-B126); assay type: cell-based; conditions: ER degradation, 16 hours, read-out: ICW DC50
Procedure, shortened: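 Readout was a two-colour infrared in-cell western of formaldehyde-fixed cells after 16 h compound exposure at 0.5% DMSO, with 40,000 or 10,000 cells/well plated the previous night. Relative ER percentage compares treated wells against untreated/DMSO-treated wells taken as 100%.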

T2 sequence (Q96SW2 whole entry): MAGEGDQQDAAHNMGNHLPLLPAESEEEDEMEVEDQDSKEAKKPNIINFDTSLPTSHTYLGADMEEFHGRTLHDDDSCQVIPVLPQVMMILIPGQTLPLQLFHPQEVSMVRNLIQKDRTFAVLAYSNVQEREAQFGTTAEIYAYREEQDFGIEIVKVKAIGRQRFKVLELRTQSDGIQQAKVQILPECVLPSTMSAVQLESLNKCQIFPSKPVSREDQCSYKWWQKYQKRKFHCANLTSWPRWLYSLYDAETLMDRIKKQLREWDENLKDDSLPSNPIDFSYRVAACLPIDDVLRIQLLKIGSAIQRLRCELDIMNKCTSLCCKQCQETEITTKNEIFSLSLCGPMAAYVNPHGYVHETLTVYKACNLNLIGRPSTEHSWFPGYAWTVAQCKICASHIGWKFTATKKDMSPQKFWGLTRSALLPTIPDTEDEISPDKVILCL
T2 sequence (Q16531 whole entry partner): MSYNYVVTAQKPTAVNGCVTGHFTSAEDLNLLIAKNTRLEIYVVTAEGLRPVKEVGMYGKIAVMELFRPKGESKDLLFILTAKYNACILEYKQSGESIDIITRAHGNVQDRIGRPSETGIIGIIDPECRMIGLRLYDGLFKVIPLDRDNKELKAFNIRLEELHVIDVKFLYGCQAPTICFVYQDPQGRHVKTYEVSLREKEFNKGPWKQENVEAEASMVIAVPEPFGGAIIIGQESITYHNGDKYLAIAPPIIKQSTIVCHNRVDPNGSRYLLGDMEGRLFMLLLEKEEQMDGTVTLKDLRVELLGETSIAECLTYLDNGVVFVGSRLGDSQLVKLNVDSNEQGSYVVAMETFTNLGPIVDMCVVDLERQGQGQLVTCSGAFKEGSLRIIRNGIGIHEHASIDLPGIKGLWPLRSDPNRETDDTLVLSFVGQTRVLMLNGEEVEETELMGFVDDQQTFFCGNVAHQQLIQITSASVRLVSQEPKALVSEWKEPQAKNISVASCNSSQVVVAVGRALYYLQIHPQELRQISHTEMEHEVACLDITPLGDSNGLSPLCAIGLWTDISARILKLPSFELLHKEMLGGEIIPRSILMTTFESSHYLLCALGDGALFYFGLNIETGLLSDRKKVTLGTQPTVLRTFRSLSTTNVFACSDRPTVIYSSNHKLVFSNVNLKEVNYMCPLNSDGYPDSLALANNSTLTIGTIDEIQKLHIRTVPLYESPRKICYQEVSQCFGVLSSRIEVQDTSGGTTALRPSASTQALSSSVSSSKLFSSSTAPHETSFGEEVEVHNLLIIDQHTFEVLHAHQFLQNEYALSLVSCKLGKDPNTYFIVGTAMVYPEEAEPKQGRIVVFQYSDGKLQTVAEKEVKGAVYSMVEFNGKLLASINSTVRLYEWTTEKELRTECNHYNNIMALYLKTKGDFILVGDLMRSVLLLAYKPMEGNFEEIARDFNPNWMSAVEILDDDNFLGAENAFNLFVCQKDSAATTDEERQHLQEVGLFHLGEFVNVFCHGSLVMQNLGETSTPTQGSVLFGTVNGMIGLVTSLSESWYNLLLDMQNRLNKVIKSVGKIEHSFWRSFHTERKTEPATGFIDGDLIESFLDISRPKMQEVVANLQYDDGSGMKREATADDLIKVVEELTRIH

| Compound | IC50 (CRBN/DDB1) | DC50 (ER [4]) | DC50 (ER [5]) | IC50 [3] | also measured |
| --- | --- | --- | --- | --- | --- |
| C[C@@H]1Cc2c(ccc3[nH]ncc23)[C@@H](c2ccc(N3CCC4(CC3)CC(CN3CCN5c6cc7c(cc6OC[C@H]5C3)C(=O)N([C@@H]3CCC(=O)NC3=O)C7)C4)cn2)N1CC1(F)CC1 [Compound A14, (R)-3-((R)-3-((7-(6-((6S,8R)-7-((1-fluorocyclopropyl)methyl)-8-methyl-6,7,8,9-tetrahydro-3H-pyrazolo[4,3-f]isoquinolin-6-yl)pyridin-3-yl)-7-azaspiro[3.5]nonan-2-yl)methyl)-8-oxo-1,2,3,4,4a,5,8,10-octahydro-9H-pyrazino[1′,2′:4,5][1,4]oxazino[2,3-f]isoindol-9-yl)piperidine-2,6-dione] | 50 to 500 nM | – | – | – | DC50 (ER [1]): < 1 nM; Dmax (ER [1]; T47D, read-out: ER T47D ICW Dmax (%)): > 75%; Dmax (ER [2]; MCF7, MCF-7 cells, read-out: ER MCF7 ICW Dmax (%)): 50 to 75%; DC50 (ER [2]; MCF-7 cells): < 1 nM |
| C[C@@H]1Cc2c(ccc3[nH]ncc23)[C@@H](c2c(F)cc(N3CCC4(CCN(C(=O)CN5Cc6cc(F)c(C(=O)N[C@H]7CCC(=O)NC7=O)cc6C5)CC4)CC3)cc2F)N1CC(F)F [Compound A1, 2-(2-(9-(4-((6S,8R)-7-(2,2-difluoroethyl)-8-methyl-6,7,8,9-tetrahydro-3H-pyrazolo[4,3-f]isoquinolin-6-yl)-3,5-difluorophenyl)-3,9-diazaspiro[5.5]undecan-3-yl)-2-oxoethyl)-N-((S)-2,6-dioxopiperidin-3-yl)-6-fluoroisoindoline-5-carboxamide] | > 5000 nM | – | – | – | – |
| (S)-3-((R)-7-((1-(5-((6S,8R)-8-methyl-7- (2,2,2-trifluoroethyl)-6,7,8,9-tetrahydro-3H- pyrazolo[4,3-f]isoquinolin-6-yl)pyridin-2- yl)piperidin-4-yl)methyl)-1-oxo- 1,3,5,5a,6,7,8,9-octahydro-2H- pyrazino[1′,2′:4,5][1,4]oxazino[2,3-c]isoindol- 2-yl)piperidine-2,6-dione [Compound A23] | 500 to 5000 nM | – | – | – | DC50 (ER [1]): 1 to 10 nM; ER T47D ICW Dmax (%) (ER [1]): B (“B”: >50% and <75%); ER MCF7 ICW Dmax (%) (ER [2]; MCF-7 cells): B (“B”: >50% and <75%); DC50 (ER [2]; MCF-7 cells): 1 to 10 nM |
| 6-((1R,4s)-4-(4-(4-((6S,8R)-7-(2,2- difluoroethyl)-8-methyl-6,7,8,9- tetrahydro-3H-pyrazolo[4,3- f]isoquinolin-6-yl)-3,5- difluorophenyl)piperidine-1- carbonyl)cyclohexyl)-2-(2,6- dioxopiperidin-3-yl)-6,7- dihydropyrrolo[3,4-f]isoindole- 1,3(2H,5H)-dione [Compound B9] | – | < 10 nM | < 10 nM | – | – |

The next lines start with results.

| IC50 (CRBN/DDB1) | DC50 (ER [4]) | DC50 (ER [5]) | Compound | IC50 [3] | also measured |
| --- | --- | --- | --- | --- | --- |
| – | < 10 nM | – | C[C@@H]1Cc2c(ccc3[nH]ncc23)[C@@H](c2c(F)cc(NC3CN(C(=O)[C@H]4CC[C@@H](N5Cc6cc7c(cc6C5)C(=O)N(C5CCC(=O)NC5=O)C7=O)CC4)C3)cc2F)N1CC(F)F (stereo partly drawn) [Compound B25, 6-((1R,4s)-4-(3-((4-((6S,8R)-7-(2,2-difluoroethyl)-8-methyl-6,7,8,9-tetrahydro-3H-pyrazolo[4,3-f]isoquinolin-6-yl)-3,5-difluorophenyl)amino)azetidine-1-carbonyl)cyclohexyl)-2-(2,6-dioxopiperidin-3-yl)-6,7-dihydropyrrolo[3,4-f]isoindole-1,3(2H,5H)-dione] | 1 to 10 nM | – |
| – | 10 to 100 nM | 10 to 100 nM | C[C@@H]1Cc2c(ccc3[nH]ncc23)[C@@H](c2c(F)cc(N3CCC(CN4CCN5c6ccc7c(c6OCC5C4)CN(C4CCC(=O)NC4=O)C7=O)CC3)cc2F)N1CC(F)F (mixture of isomers) [Compound B104, 3-((RS)-7-((1-(4-((6S,8R)-7-(2,2-difluoroethyl)-8-methyl-6,7,8,9-tetrahydro-3H-pyrazolo[4,3-f]isoquinolin-6-yl)-3,5-difluorophenyl)piperidin-4-yl)methyl)-1-oxo-1,3,5,5a,6,7,8,9-octahydro-2H-pyrazino[1′,2′:4,5][1,4]oxazino[2,3-e]isoindol-2-yl)piperidine-2,6-dione] | – | – |
| – | 10 to 100 nM | – | C[C@@H]1Cc2c(ccc3[nH]ncc23)[C@@H](c2c(F)cc(N3CCC(CN4CCN5c6cc7c(cc6OC[C@@H]5C4)C(=O)N(C4CCC(=O)NC4=O)C7)CC3)cc2F)N1CC(F)F (some centres unmarked) [Compound B16] | < 1 nM | – |
| – | 10 to 100 nM | – | C[C@@H]1Cc2c(ccc3[nH]ncc23)[C@@H](c2ccc(N3CCC4(CC3)CN(C(=O)CN3Cc5cc6c(cc5C3)C(=O)N(C3CCC(=O)NC3=O)C6=O)CCO4)cn2)N1CC(F)(F)F (some centres unmarked) [Compound B111] | 1 to 10 nM | – |
| – | < 10 nM | < 10 nM | C[C@@H]1Cc2c(ccc3[nH]ncc23)[C@@H](c2c(F)cc(N3CCC(CN4CCN(c5ccc6c(c5)CN(C5CCC(=O)NC5=O)C6=O)CC4)CC3)cc2F)N1CC(F)F (stereo partly drawn) [Compound B67, 3-(5-(4-((1-(4-((6S,8R)-7-(2,2-difluoroethyl)-8-methyl-6,7,8,9-tetrahydro-3H-pyrazolo[4,3-f]isoquinolin-6-yl)-3,5-difluorophenyl)piperidin-4-yl)methyl)piperazin-1-yl)-1-oxoisoindolin-2-yl)piperidine-2,6-dione] | < 1 nM | – |
| – | 10 to 100 nM | – | C[C@@H]1Cc2c(ccc3[nH]ncc23)[C@@H](c2c(F)cc(NC3CN(C(=O)[C@H]4CC[C@H](N5Cc6cc7c(cc6C5)C(=O)N(C5CCC(=O)NC5=O)C7=O)CC4)C3)cc2F)N1CC(F)F (stereo partly drawn) [Compound B24, 6-((1S,4r)-4-(3-((4-((6S,8R)-7-(2,2-difluoroethyl)-8-methyl-6,7,8,9-tetrahydro-3H-pyrazolo[4,3-f]isoquinolin-6-yl)-3,5-difluorophenyl)amino)azetidine-1-carbonyl)cyclohexyl)-2-(2,6-dioxopiperidin-3-yl)-6,7-dihydropyrrolo[3,4-f]isoindole-1,3(2H,5H)-dione] | 1 to 10 nM | – |
